The text below walks through data of publication PMC3834327, “N ^6-Substituted AMPs Inhibit Mammalian Deoxynucleotide N-Hydrolase DNPH1” (PLoS ONE, 2013).

Experiment [1] addresses T1, rat DNPH1 (Rattus norvegicus, UniProt O35820).
T1 sequence (O35820 1-163): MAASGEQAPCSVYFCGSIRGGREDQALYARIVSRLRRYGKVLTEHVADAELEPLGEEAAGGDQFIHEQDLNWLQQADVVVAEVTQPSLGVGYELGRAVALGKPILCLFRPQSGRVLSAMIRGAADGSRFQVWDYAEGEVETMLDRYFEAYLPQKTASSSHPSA
Nature of the experiment: Isothermal titration calorimetry with rat DNPH1. The settings on record: for -T∆S / ∆G / ∆H / ∆S: ITC, T = 298 K, pH 6.0, rat DNPH1. On the technique in general: ITC needs no label: the signal is the heat of the interaction.

The target in experiment [2] is T2, human DNPH1 (Homo sapiens, UniProt O43598).
T2 sequence (O43598 1-174): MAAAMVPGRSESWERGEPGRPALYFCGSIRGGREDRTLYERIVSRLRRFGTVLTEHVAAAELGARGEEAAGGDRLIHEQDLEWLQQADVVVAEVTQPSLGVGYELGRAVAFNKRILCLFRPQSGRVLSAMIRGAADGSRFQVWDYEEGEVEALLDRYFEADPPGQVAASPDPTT
Nature of the experiment: Isothermal titration calorimetry with human DNPH1. The settings on record: for -T∆S / ∆G / ∆H / ∆S: ITC, T = 298 K, pH 6.0, human DNPH1.

Experiment [3] addresses T1, rat DNPH1. The experiment is described as follows: Kinetic measurements: inhibition of rat DNPH1 activity (dGMP substrate, spectrophotometric).
In experiment [4] the target is T2, human DNPH1. The experiment is described as follows: Kinetic measurements: inhibition of human DNPH1 activity (dGMP substrate, guanine by RR-HPLC).
The target in experiment [5] is T1, rat DNPH1. Set-up: made in house; host or cells: E. coli Bli5; method as in PMID 20962348. The settings on record: cited from earlier work.
Experiment [6] addresses T2, human DNPH1. Nature of the experiment: Kinetic parameters of human DNPH1 with 2'-deoxynucleoside 5'-monophosphates as substrates. Type of experiment: biochemical. Set-up: made in house; host or cells: E. coli Bli5. The settings on record: substrate of human DNPH1; for Km: double reciprocal plots, five concentrations.

As for `CC(C)=CCNc1ncnc2c1ncn2[C@@H]1O[C@H](COP(=O)(O)O)[C@@H](O)[C@H]1O` [Compound 1, N ^6-Isopentenyl adenosine 5’-monophosphate], in experiment [1], the Kd (commonly the free concentration of one partner at which half of the binding sites on the other are occupied at equilibrium, for simple one-to-one binding) stood at 2600 ± 100 nM; the “-T∆S” value came out at 8.3 kcal/mol; the “∆G” value is -7.6 kcal/mol; the “∆H” value is -15.9 ± 0.1 kcal/mol. Besides, in experiment [1], the “∆S” value was -27.9 cal.K^1.mol^-1. Also, in experiment [2], the dissociation constant Kd came to 2100 ± 200 nM, the “-T∆S” value came to 2.4 kcal/mol, the “∆G” value was -7.8 kcal/mol and the “∆H” value is -10.2 ± 0.1 kcal/mol. In addition, the “∆S” value in experiment [2] is recorded as -8.2 cal.K^-1.mol^-1. In experiment [3], the Ki – broadly, a measure of affinity in units of concentration, obtained from inhibition or displacement – was 3300 nM. The compound also came in with a Ki in experiment [4] of 2000 nM.
Turning to `C/C(=C\CNc1ncnc2c1ncn2[C@@H]1O[C@H](COP(=O)(O)O)[C@@H](O)[C@H]1O)CO` [Compound 2, trans-zeatin riboside 5’-monophosphate], the Ki in experiment [3] came out at 15500 ± 1000 nM; in experiment [4], 8000 ± 1400 nM. Also, the “decrease in activity compared to 1” value in experiment [3] (hydroxyl group on the C4 chain) is “up to 5 fold”.
As for `C/C(=C/CNc1ncnc2c1ncn2[C@@H]1O[C@H](COP(=O)(O)O)[C@@H](O)[C@H]1O)CO` [Compound 3, cis-zeatin riboside 5’-monophosphate], the figures for the Ki in experiment [3] and in experiment [4] were 6100 ± 1200 nM and 5600 ± 800 nM, respectively.
Taken in the same sequence, the figures for `CC(CO)CCNc1ncnc2c1ncn2[C@@H]1O[C@H](COP(=O)(O)O)[C@@H](O)[C@H]1O` (stereo partly shown) [Compound 4, dihydrozeatin riboside 5’-monophosphate] were 7600 ± 1500 nM and 3900 ± 1000 nM.
`O=P(O)(O)OC[C@H]1O[C@@H](n2cnc3c(NCc4ccco4)ncnc32)[C@H](O)[C@@H]1O` [Compound 5, kinetin riboside 5’-monophosphate]: in experiment [1], binding was characterised by a dissociation constant (Kd) of 800 ± 100 nM, the “-T∆S” value amounted to 17.4 kcal/mol, the “∆G” value is -8.3 kcal/mol and the “∆H” value is -25.7 ± 0.1 kcal/mol. In experiment [1], the “∆S” value is reported as -58.3 cal.K^1.mol^-1. Also, in experiment [2], binding was characterised by a dissociation constant (Kd) of 1400 ± 100 nM, the “-T∆S” value turned out to be 12.6 kcal/mol, the “∆G” value is -7.5 kcal/mol and the “∆H” value is -20.1 ± 0.1 kcal/mol. Besides, in experiment [2], the “∆S” value was -42.4 cal.K^-1.mol^-1. The compound further gave a Ki in experiment [3] of 1800 ± 700 nM. Besides, the inhibition constant Ki in experiment [4] turned out to be 2200 ± 200 nM.
As to `O=P(O)(O)OC[C@H]1O[C@@H](n2cnc3c(NC4CCCC4)ncnc32)[C@H](O)[C@@H]1O` [Compound 7, N ^6-cyclopentyladenosine 5’-monophosphate], in experiment [1], the Kd stood at 600 ± 100 nM, the “-T∆S” value came to 2.3 kcal/mol, the “∆G” value was -8.5 kcal/mol and the “∆H” value was -10.7 ± 0.1 kcal/mol. The “∆S” value in experiment [1] is recorded as -7.5 cal.K^1.mol^-1. Besides, in experiment [2], binding was put at a Kd of 1400 ± 400 nM, the “-T∆S” value is -1.8 kcal/mol, the “∆G” value was -8.0 kcal/mol and the “∆H” value is -6.1 ± 0.1 kcal/mol. The “∆S” value in experiment [2] stood at 6.2 cal.K^-1.mol^-1. In experiment [3], affinity was put at a Ki of 1200 ± 100 nM. This compound displayed an inhibition constant Ki in experiment [4] of 2600 ± 300 nM.
For `O=P(O)(O)OC[C@H]1O[C@@H](n2cnc3c(NC4CCCCC4)ncnc32)[C@H](O)[C@@H]1O` [Compound 8, N ^6-Cyclohexyladenosine 5'-monophosphate], in experiment [1], the Kd came to 500 ± 100 nM, the “-T∆S” value was determined as 11.2 kcal/mol, the “∆G” value is -8.7 kcal/mol and the “∆H” value was -19.9 ± 0.1 kcal/mol. The “∆S” value in experiment [1] is listed as -37.6 cal.K^1.mol^-1. The compound also registered an inhibition constant (Ki) in experiment [3] of 1200 ± 100 nM. The inhibition constant (Ki) in experiment [4] is 1600 ± 300 nM.
Turning to `O=P(O)(O)OC[C@H]1O[C@@H](n2cnc3c(NC4CCC4)ncnc32)[C@H](O)[C@@H]1O` [Compound 9, N ^6-Cyclobutyladenosine 5'-monophosphate], the Ki was 1300 ± 100 nM in experiment [3] and 1500 ± 100 nM in experiment [4].
Take `O=P(O)(O)OC[C@H]1O[C@@H](n2cnc3c(NC4CC4)ncnc32)[C@H](O)[C@@H]1O` [Compound 10, N ^6-Cyclopropyladenosine 5'-monophosphate]: the results for the Ki in experiment [3] and in experiment [4] were 2000 ± 600 nM and 2800 ± 600 nM, respectively.
For the compound `O=P(O)(O)OC[C@H]1O[C@@H](n2cnc3c(NCCc4ccccc4)ncnc32)[C@H](O)[C@@H]1O` [Compound 12, N ^6-Phenylethyladenosine 5'-monophosphate], the Ki in experiment [3] came out at 2900 ± 300 nM; in experiment [4], 7800 ± 1000 nM.
On to `O=C(O)CCNc1ncnc2c1ncn2[C@@H]1O[C@H](COP(=O)(O)O)[C@@H](O)[C@H]1O` [Compound 13, N ^6-(2-carboxyethyl)adenosine 5'-monophosphate], for which the inhibition constant (Ki) in experiment [3] amounted to 6200 ± 700 nM; in experiment [4] it was 5600 ± 500 nM.
Regarding `O=C(O)CCCNc1ncnc2c1ncn2[C@@H]1O[C@H](COP(=O)(O)O)[C@@H](O)[C@H]1O` [Compound 14, N ^6-(3-carboxypropyl)adenosine 5'-monophosphate], in experiment [1], the dissociation constant Kd is 9400 ± 100 nM, the “-T∆S” value worked out at 5.5 kcal/mol, the “∆G” value was -6.9 kcal/mol and the “∆H” value is -12.4 ± 0.1 kcal/mol. Besides, in experiment [1], the “∆S” value was -18.5 cal.K^1.mol^-1. In experiment [2], the equilibrium dissociation constant (Kd) is 5500 ± 100 nM, the “-T∆S” value was 2.6 kcal/mol, the “∆G” value was -7.2 kcal/mol and the “∆H” value is -9.8 ± 0.1 kcal/mol. The “∆S” value in experiment [2] is on record as -8.8 cal.K^-1.mol^-1. The Ki in experiment [3] was 11200 nM. This compound gave an inhibitory constant (Ki) in experiment [4] of 2100 ± 200 nM.
With `Nc1nc2c(ncn2[C@@H]2O[C@H](COP(=O)(O)O)[C@@H](O)[C@H]2O)c(=O)[nH]1` [GMP], in experiment [5], the free energy is -6.8 kcal/mol.
Turning to `Nc1ncnc2c1ncn2[C@H]1C[C@H](O)[C@@H](COP(=O)(O)O)O1` [dAMP], in experiment [6], the turnover number (kcat) (commonly the maximal rate divided by the concentration of active sites) is reported as 2.5 ± 0.8 10^-3 s^-1 and the Km – broadly, the substrate concentration at which the rate is half of its maximum – stood at 97 ± 14 µM.
Taken in the same sequence, the figures for `Nc1ccn([C@H]2C[C@H](O)[C@@H](COP(=O)(O)O)O2)c(=O)n1` [dCMP] were 8.3 ± 0.4 10^-3 s^-1 and 2500 ± 207 µM.
`Nc1nc2c(ncn2[C@H]2C[C@H](O)[C@@H](COP(=O)(O)O)O2)c(=O)[nH]1` [dGMP, 2’-Deoxyguanosine 5’-monophosphate]: in experiment [6], the kcat came out at 0.002 s⁻¹.
In the case of `O=c1[nH]cnc2c1ncn2[C@H]1C[C@H](O)[C@@H](COP(=O)(O)O)O1` [dIMP], in experiment [6], the kcat is given as 1.6 ± 0.1 10^-3 s^-1 and the Km was found to be 104 ± 19 µM.
As to `Cc1cn([C@H]2C[C@H](O)[C@@H](COP(=O)(O)O)O2)c(=O)[nH]c1=O` [dTMP], in experiment [6], the turnover number (kcat) is listed as 25 ± 2 10^-3 s^-1 and the Km came out at 23000 ± 3050 µM.
Take `O=c1ccn([C@H]2C[C@H](O)[C@@H](COP(=O)(O)O)O2)c(=O)[nH]1` [dUMP]: in experiment [6], the turnover number (kcat) is listed as 200 ± 20 10^-3 s^-1 and the Michaelis-Menten constant (Km) was found to be 7800 ± 1760 µM.
